According to article PMC11541514, “Structural and Solution Speciation Studies on fac-Tricarbonylrhenium(I) Complexes of 2,2′-Bipyridine Analogues” (ACS Omega, 2024):

Key:
[1] = tested on: Colo205 human colonic adenocarcinoma cell line (doxorubicin-sensitive); experiment: MTT cytotoxicity assay on Colo205 cells; type: cell-based
Method: The cytotoxic activity of selected halido (1–4Cl, and 3Br with chlorido and bromido coligand, respectively) and aqua (1–4Aq) complexes was evaluated in the drug-sensitive Colo205 and its resistant counterpart Colo320 human colonic adenocarcinoma cell lines using the colorimetric 3-(4,5-dimethylthiazol-2-yl)-2,5-diphenyl-tetrazolium bromide (MTT) assay. For comparison, fac-[Re(CO)3(bpy)(Cl)] (in which bpy denotes 2,2′-bipyridine) was also tested, and doxorubicin was used as a positive control. […] The aqua complexes (1–4Aq) were characterized by even higher IC50 values (>100 μM). The somewhat higher cytotoxic activity of the halido complexes might be the result of their kinetic inertness compared to aqua derivatives, based on the previous solution chemical studies. […]
(§1) The tested compounds were dissolved in DMSO or 20% (v/v) DMSO/H2O mixture to prepare 5 mM stock solutions, which were diluted in complete culture medium, to study the effect of compounds on the cell growth of human colonic adenocarcinoma cell lines (doxorubicin-sensitive Colo205 and resistant Colo320 colonic adenocarcinoma cells). […] Cell growth was determined by measuring the optical density (OD) at 540/630 nm with a Multiscan EX ELISA reader (Thermo Labsystems, Cheshire, WA, USA). […]

[2] = tested on: Colo320/MDR-LRP resistant human colonic adenocarcinoma cell line; experiment: MTT cytotoxicity assay on Colo320 cells; type: cell-based; settings: for IC50: MTT, incubation time 72 h
Method: The cytotoxic activity of selected halido (1–4Cl, and 3Br with chlorido and bromido coligand, respectively) and aqua (1–4Aq) complexes was evaluated in the drug-sensitive Colo205 and its resistant counterpart Colo320 human colonic adenocarcinoma cell lines using the colorimetric 3-(4,5-dimethylthiazol-2-yl)-2,5-diphenyl-tetrazolium bromide (MTT) assay. For comparison, fac-[Re(CO)3(bpy)(Cl)] (in which bpy denotes 2,2′-bipyridine) was also tested, and doxorubicin was used as a positive control. […] The aqua complexes (1–4Aq) were characterized by even higher IC50 values (>100 μM). The somewhat higher cytotoxic activity of the halido complexes might be the result of their kinetic inertness compared to aqua derivatives, based on the previous solution chemical studies.
Doxorubicin-sensitive Colo205 (ATCC-CCL-222) and ABCB1 (MDR1)-LRP-expressing resistant Colo320/MDR-LRP (ATCC-CCL-220.1) human colonic adenocarcinoma cell lines were purchased from LGC Promochem (Teddington, UK). The cells were cultured in RPMI 1640 medium supplemented with 10% heat-inactivated fetal bovine serum, 2 mM L-glutamine, 1 mM Na-pyruvate, and 10 mM 4-(2-hydroxyethyl)-1-piperazineethanesulfonic acid (HEPES, Sigma, Steinheim, Germany). Cell lines were incubated at 37 °C in a 5% CO2, 95% air atmosphere. The semiadherent human colon cancer cells were detached with Trypsin-Versene (EDTA, Sigma, Steinheim, Germany) solution for 5 min at 37 °C.
as §1, with “cells). Doxorubicin (Merck, Darmstadt, Germany) was used as a positive control. The cells were treated with Trypsin-Versene (EDTA) solution.” for “cells).”

Vero cells = experiment: MTT assay on Vero cells, maximum non-toxic concentration; type: cell-based, African green monkey; settings: incubation 24 h
Method: Selected compounds (1–4Aq, 1–4Cl, and 3Br) and the reference complex fac-[Re(CO)3(bpy)(Cl)] were tested for their antiviral activity against Herpes simplex virus 2 (HSV-2), which is a double-stranded DNA virus that infects mammals, including humans.[29] The antiviral activity of complexes against HSV-2 was investigated by using Vero cells (originally isolated from kidney epithelial cells of an African green monkey) to host the growing viruses.
Vero cells (ATCC) were placed into the 96-well plate (Sarstedt, Nümbrecht, Germany) at a density of 4 × 10^6 cells/plate. The cells at a density of 4 × 10^4 cells per well were in 100 μL of minimal essential medium (MEM) (Sigma; USA) with Earle salts supplemented with 25 μg/mL gentamicin, 10% heat-inactivated fetal bovine serum (FBS) (Gibco; Germany), 8 mM HEPES, 2 mM L-glutamine, 1× nonessential amino acids, and 1 μg/mL fungisone. The cells were incubated for 60 min at room temperature (RT) to avoid the edge effect and then for 24 h at 37 °C, 5% CO2 that secure a 90% confluent cell layer.[44]
MTT assay was used to determine the maximum non-toxic concentration of the complexes on Vero cells. […] Next day the absorbance of the wells was determined by a microtiter plate reader (Labsystems Multiskan Ex 355, Thermo Fisher Scientific, Waltham, MA USA). The absorbance of the formazan product was measured at 540 nm.[45]

Structure (SMILES)	IC50 ([1]; Homo sapiens, COLO 205, incubation time 72 h) [µM]	IC50 ([2]; Homo sapiens, COLO 320) [µM]	IC50 ([1]; incubation time 72 h) [µM]	RF (resistance factor = IC50(Colo320)/IC50(Colo205)) ([2]; 72 h)	IC50 [2] [µM]	maximum nontoxic concentration (Vero cells) [µM]
COc1cccc2c1C(=O)c1c(O)c3c(c(O)c1C2=O)C[C@@](O)(C(=O)CO)C[C@@H]3O[C@H]1C[C@H](N)[C@H](O)[C@H](C)O1 [doxorubicin, reference compound]	0.58 ± 0.06	3.13 ± 0.29				
[C-]#[O+].[C-]#[O+].[C-]#[O+].[Cl][Re-2]1[n+]2ccccc2-c2cccc[n+]21 [fac-[Re(CO)3(bpy)(Cl)], reference compound]			25.2 ± 1.1	1.95	49.1 ± 1.7	25
